Test system: Xylella fastidiosa (Xf)
Assay type: cell-based
Conditions: single metabolite from Cochliobolus sp. extract, identified by NMR and MS

C/C=C/c1cc2c(c(=O)o1)C(=O)[C@@H](O)[C@H](C)O2 [radicinin]
anti-Xf inhibitory activity of the isolated metabolite: inhibitory activity

From US10238118B2 (priority 2011, dated 2019)
